Results from patent US5728829A, “Process of preparing benzodiazepine compounds useful as antagonists of CCK or of gastrine” (Ferring-Research Limited, priority 1993, dated 1998).
Where two headings read alike, the source gives them in different places.

How the values were obtained:
CCK-B receptor = biological target: T1, CCK-B receptor (Rattus norvegicus, UniProt P30553); assay: Measurement of binding affinity for CCK-B receptors ([125I]BH-CCK-8, rat brain membranes); set-up: species or system SD rat
T1 construct: the whole brain was immediately excised from each of the rats and homogenized; from tissue; host or cells: SD rat whole brain membranes
T1 sequence (P30553 1-452): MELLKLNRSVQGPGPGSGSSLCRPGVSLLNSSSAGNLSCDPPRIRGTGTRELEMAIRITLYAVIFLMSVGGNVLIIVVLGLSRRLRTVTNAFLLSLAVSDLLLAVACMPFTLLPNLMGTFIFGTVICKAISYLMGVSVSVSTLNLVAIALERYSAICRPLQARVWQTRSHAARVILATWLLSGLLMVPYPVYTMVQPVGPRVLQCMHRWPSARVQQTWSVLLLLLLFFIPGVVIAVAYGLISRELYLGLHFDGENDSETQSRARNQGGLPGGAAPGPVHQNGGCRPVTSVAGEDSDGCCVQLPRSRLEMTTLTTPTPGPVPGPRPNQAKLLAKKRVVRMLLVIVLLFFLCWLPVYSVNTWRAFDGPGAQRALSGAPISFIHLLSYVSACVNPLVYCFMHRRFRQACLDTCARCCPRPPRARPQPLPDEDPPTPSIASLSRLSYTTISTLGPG
Experimental: About 100 SD rats were decapitated without anaesthesia, the whole brain was immediately excised from each of the rats and homogenized in 10-fold volume of 0.32M aqueous solution of sucrose by the use of a Teflon-coated homogenizer, the homogenate thus obtained was centrifuged for ten minutes at 900 G by the use of a cooled centrifuge, and the supernatant was further centrifuged for 15 minutes at 11500 G. The precipitate thus obtained was dispersed in 50 mM Tris-HCl buffer (pH 7.4) containing 0.08% Triton X-100, this suspension was allowed to stand for 30 minutes and again centrifuged for 15 minutes at 11500 G, the precipitate thus obtained was washed twice with 5 mM Tris-HCl buffer and twice with 50 mM Tris-HCl buffer in that order with centrifugal separation, the washed precipitate was suspended in 50 mM Tris-HCl buffer, and the suspension thus obtained was stored at -80° C. until the membrane preparation was required.
The membrane preparations were warmed to room temperature, diluted with 10 mM HEPES buffer (containing 130 mM NaCl, 5 mM MgCl2, 1 mM EGTA and 0.25 mg/ml bacitracin; pH 6.5) and incubated at 25° C. for 120 minutes in the presence of [^125 I]BH-CCK-8 and the test compound, then separated by suction filtration. Non-specific binding was determined in the presence of 1 μM CCK-8. The amount of labelled ligand bound to the receptor was measured by the use of a γ-counter, IC50 values were determined, being that concentration of test compound required to inhibit specific binding by 50%.

[1] = test system: pentagastrin-stimulated gastric acid secretion; assay: Measurement of inhibition of pentagastrin-stimulated gastric acid secretion in rat; format: in vivo; conditions: intravenous; for % Inhibition (maximum inhibition of gastric acid secretion): at 0.1 μmol/kg, mean for 3-5 animals; for ED50: read-out: ED50 (dose reducing secreted gastric acid to 50% of the maximum level), table 3, "Relative ED50 values", anaesthetised rat, pentagastrin 15 μg/Kg/hr
From the text: Measurement of inhibition of pentagastrin-stimulated gastric acid secreation in rat
A cannula was inserted into the trachea of a rat anaesthetised with urethane (intraperitoneally administered, 1.25 g/Kg), its abdominal wall was incised to expose the gastric and duodenal portions, and a polyethylene cannula was set in the anterior stomach after ligation of the cardia. The duodenum was then subjected to slight section, a polyethylene cannnula was inserted from the incised portion toward the stomach, and the pylorus was ligated to fix the cannula.
Physiological saline (with pH adjusted to 7.0) was perfused from the anterior stomach toward the pylorus at a rate of 3 ml/min, and the gastric-acid secreation was measured by continuous titration of the perfusate by the use of a pH-stat (AUT-201; product of Toa Electronics, Ltd.). The continuous titration was carried out by using 25 mM NaOH solution until the pH reached 7.0, and the result was expressed as the amount of gastric acid secreted for every 10 minutes (μEq /10 min.). Pentagastrin was intravenously administered at a rate of 15 μg/Kg/hr.
The secretion of gastric acid increased upon administration of pentagastrin, reaching the maximum level after 60 minutes and stably maintaining this level after that.

CCK-A receptor = biological target: T2, CCK-A receptor (Rattus norvegicus, UniProt P30551); assay: Selectivity for the CCK-B receptor by comparison with binding to the CCK-A receptor in rats ([3H]L-364,718, pancreas membranes); set-up: species or system SD rat; conditions: table 2; for A/B Ratio: IC50 (CCK-A)/IC50 (CCK-B): higher value = better CCK-B selectivity; for IC50: rat pancreas membranes, [3H]L-364,718, 37 °C, 30 min, read-out: Receptor binding affinity IC50, CCK-A
T2 construct: The pancreas of an SD rat was homogenized; from tissue; host or cells: SD rat pancreas membranes
T2 sequence (P30551 1-444): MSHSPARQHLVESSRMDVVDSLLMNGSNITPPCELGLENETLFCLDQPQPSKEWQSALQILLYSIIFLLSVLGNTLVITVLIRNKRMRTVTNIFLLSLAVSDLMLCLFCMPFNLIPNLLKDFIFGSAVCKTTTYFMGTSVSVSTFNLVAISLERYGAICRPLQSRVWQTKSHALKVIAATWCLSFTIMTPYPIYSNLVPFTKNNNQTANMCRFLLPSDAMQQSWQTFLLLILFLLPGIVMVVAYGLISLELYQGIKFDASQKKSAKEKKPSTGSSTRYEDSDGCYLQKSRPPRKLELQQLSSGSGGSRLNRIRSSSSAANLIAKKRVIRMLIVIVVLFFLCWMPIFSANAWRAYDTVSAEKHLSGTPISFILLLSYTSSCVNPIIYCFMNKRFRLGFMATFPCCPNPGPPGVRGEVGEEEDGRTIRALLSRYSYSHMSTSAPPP
Experimental: Determination of selectivity for the CCK-B receptor by comparison with binding to the CCK-A receptor in rats
The pancreas of an SD rat was homogenized in a 20-fold volume of 50 mM Tris-HCl buffer (pH 7.7) by the use of a Polytrone-type homogenizer, the homogenate was twice centrifuged for 10 minutes at 50000 G by the use of an ultra-centrifuge, the precipitate thus obtained was suspended in a 40-fold volume of 50 mM Tris-HCl buffer (containing 0.2% BSA, 5 mM MgCl2, 0.1 mg/ml bacitracin and 5 mM DTF; pH 7.7), and the suspension was stored at -80° C. until the membrane preparations were required.
The membrane preparations were then warmed to room temperature, diluted 1:10 with the buffer and incubated at 37° C. for 30 minutes in the presence of [^3 H]L-364,718 and the test compound then separated by suction filtration. Non-specific binding was determined in the presence of 1 μM L-364,718.
A high affinity for the CCK-A receptor in a CCK-B/gastrin antagonist is thought to be undesirable as it may lead to side-effects such as cholestasis and gall stone formation during therapy. Therefore it is preferable for the therapeutic agent to be selective for the CCK-B receptor. This selectivity is expressed by the ratio IC50 (CCK-A)/IC50 (CCK-B); the higher the value of this ratio the better is the selectivity.

[2] = table 1, rat brain membranes, [125I]BH-CCK-8, 25 °C, 120 min, read-out: IC50 (CCK-B receptor binding)
[3] = table 2, rat brain membranes, [125I]BH-CCK-8, read-out: Receptor binding affinity IC50, CCK-B

Structure (SMILES)	IC50 (CCK-B receptor; [2])	% Inhibition (maximum inhibition of gastric acid secretion) [1]	IC50 (CCK-B receptor)	A/B Ratio: IC50 (CCK-A)/IC50 (CCK-B) (CCK-A receptor)	IC50 (CCK-A receptor)	IC50 (CCK-B receptor; [3])	ED50 [1]
CN(C(=O)OC(C)(C)C)c1cccc(C(=O)O)c1 [Example 50, 3-(N-tert-Butoxylcarbonyl-N-methylamino)benzoic acid]	0.88 nM	–	–	–	–	–	–
CN(C)c1cccc(NC(=O)NC2N=C(c3cnccn3)c3ccccc3N(CC(=O)C(C)(C)C)C2=O)c1 (racemic) [Example 6, N-((3RS)-1-tert-Butylcarbonylmethyl-2,3-dihydro-2-oxo-5-(2-pyrazinyl)-1H-1,4-benzodiazepin-3-yl)-N'-(3-dimethylaminophenyl)urea]	–	61.9%	0.22 nM	–	–	–	–
CN(C)c1cccc(NC(=O)NC2N=C(c3ncc[nH]3)c3ccccc3N(CC(=O)C(C)(C)C)C2=O)c1 (racemic) [Example 8B, N-((3RS)-1-tert-Butylcarbonylmethyl-2,3-dihydro-5-(2-imidazolyl)-2-oxo-1H-1,4-benzodiazepin-3-yl)-N'-(3-dimethylaminophenyl)urea]	–	–	55.3 nM	–	–	–	–
CNc1cccc(NC(=O)N[C@@H]2N=C(c3ccccn3)c3ccccc3N(CC(=O)C(C)(C)C)C2=O)c1 [Example 52, N(-((3R)-1-tert-Butylcarbonylmethyl-2,3-dihydro-2-oxo-5-(2-pyridyl)-1H-1,4-benzodiazepin-3-yl)-N'-3-methylaminophenyl)urea]	–	–	–	5020	502 nM	0.1 nM	–
CN(C)c1cccc(NC(=O)NC2N=C(c3nccs3)c3ccccc3N(CC(=O)C(C)(C)C)C2=O)c1 (racemic) [Example 4, N-((3RS)-1-tert-Butylcarbonylmethyl-2,3-dihydro-2-oxo-5-(2-thiazolyl)-1H-1,4-benzodiazepin-3-yl)-N'-(3-dimethylaminophenyl)urea]	–	55.2%	0.63 nM	700	441 nM	–	–
Cc1cccc(NC(=O)NC2N=C(c3nccs3)c3ccccc3N(CC(=O)C(C)(C)C)C2=O)c1 (racemic) [Example 3, N-((3RS)-1-tert-Butylcarbonylmethyl-2,3-dihydro-2-oxo-5-(2-thiazolyl)-1H-1,4-benzodiazepin-3-yl)-N'-(3-methylphenyl)urea]	–	57.6%	0.8 nM	540	433 nM	–	–
Cc1cccc(NC(=O)NC2N=C(c3cnccn3)c3ccccc3N(CC(=O)C(C)(C)C)C2=O)c1 (racemic) [Example 5, N-((3RS)-1-tert-Butylcarbonylmethyl-2,3-dihydro-2-oxo-5-(2-pyrazinyl)-1H-1,4-benzodiazepin-3-yl)-N'-(3-methylphenyl)urea]	–	55.4%	–	–	–	–	–
Cc1cccc(NC(=O)NC2N=C(c3nccn3C)c3ccccc3N(CC(=O)C(C)(C)C)C2=O)c1 (racemic) [Example 1, N-((3RS)-1-tert-Butylcarbonylmethyl-2,3-dihydro-2-oxo-5-(2-(1-methyl)imidazolyl)-1H-1,4-benzodiazepin-3-yl)-N'-(3-methylphenyl)urea]	–	48.9%	–	187	–	–	–
Cc1cccc(NC(=O)N[C@@H]2N=C(c3ccccn3)c3ccccc3N(CC(=O)C(C)(C)C)C2=O)c1 [Example 42]	0.44 nM	–	–	–	–	–	0.016 µmol/kg
CN(C)c1cccc(NC(=O)N[C@@H]2N=C(c3ccccn3)c3ccccc3N(CC(=O)C(C)(C)C)C2=O)c1 [Example 22, N-((3R)-1-tert-Butylcarbonylmethyl-2,3-dihydro-2-oxo-5-(2-pyridyl)-1H-1,4-benzodiazepin-3-yl)-N'-((3-dimethylamino)phenyl)urea]	0.2 nM	–	–	565	113 nM	0.2 nM	0.011 µmol/kg
CNc1cccc(NC(=O)NC2N=C(c3ccccn3)c3ccccc3N(CC(=O)C(C)(C)C)C2=O)c1 (racemic) [Example 26, N-((3RS)-1-tert-Butylcarbonylmethyl-2,3-dihydro-2-oxo-5-(2-pyridyl)-1H-1,4-benzodiazepin-3-yl)-N'-(3-(methylamino)phenyl)urea]	1.4 nM	–	–	–	–	–	–
CN(C)c1cccc(NC(=O)NC2N=C(c3nccn3C)c3ccccc3N(CC(=O)C(C)(C)C)C2=O)c1 (racemic) [Example 2, N-((3RS)-1-tert-Butylcarbonylmethyl-2,3-dihydro-2-oxo-5-(2-(1-methyl)imidazolyl)-1H-1,4-benzodiazepin-3-yl)-N'-(3-dimethylaminophenyl)urea]	–	47.4%	2.08 nM	238	495 nM	–	–
